Broadly, the inhibition is the change of the read-out against control, counted positive when it falls. The melting point is the temperature, or range, at which the solid turns liquid.

This is an account of results in patent US8022091B2, “Triazole derivative” (Taisho Pharmaceutical Co., Ltd., priority 2006, dated 2011).

The target of data set [1] is T1, human Edg-1 (S1P1) (Homo sapiens, UniProt P21453).
T1 construct: expressed in transfected cells; host or cells: HEK-293
Kind of data set: S1P1 binding assay: inhibition of [33P]-S1P binding to membrane fraction of HEK-293 cells transferred with the human Edg-1 (S1P1) gene. The note with it: for IC50: [33P]-S1P 0.1 nM, human Edg-1 (S1P1) HEK-293 membrane fraction, 1 h at 30° C., read-out: IC50 (concentration at which binding in the absence of the test compound was inhibited by 50%). In short, it runs like this: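 With 0.1 nM [33P]-S1P and compound (10^−5M single point, or a concentration range for IC50) in 0.1% DMSO, membrane fractions from human Edg-1-expressing HEK-293 cells were treated for one hour at 30° C in 20 mM Tris-HCl pH 7.4 with NaF, deoxypyridoxine and BSA. Bound label was measured after filtration, with untransfected-cell background subtracted.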

The mark [2] stands for this setting: test compound at 10 μM, inhibition of [33P]-S1P binding to the membrane fraction of HEK-293 cells expressing human Edg-1 (S1P1).
The mark [3] stands for this setting: test compound 10 μM, inhibition of [33P]-S1P binding, membrane fraction.

Some results are limits rather than exact numbers.

T1 sequence (P21453 whole entry): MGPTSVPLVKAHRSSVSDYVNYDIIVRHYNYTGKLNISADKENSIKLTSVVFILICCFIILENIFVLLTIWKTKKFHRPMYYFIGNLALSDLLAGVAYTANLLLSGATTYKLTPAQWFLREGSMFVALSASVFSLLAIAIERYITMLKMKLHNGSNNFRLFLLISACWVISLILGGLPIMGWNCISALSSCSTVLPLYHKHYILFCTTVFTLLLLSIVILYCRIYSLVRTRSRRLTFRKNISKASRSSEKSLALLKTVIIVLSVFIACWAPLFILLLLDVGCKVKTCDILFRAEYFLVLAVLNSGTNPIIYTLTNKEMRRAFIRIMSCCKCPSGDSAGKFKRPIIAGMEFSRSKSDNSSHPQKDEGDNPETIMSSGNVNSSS

Take `CCn1c(Oc2ccccc2)nnc1[C@@H](Cc1ccccc1)NS(=O)(=O)c1ccc(Cl)c(Cl)c1` [Compound 1]: the melting point lay in the range of 182 to 184 °C. In data set [1] (setting [2]), the inhibition at 10 µM came to 93.4% and the “Binding assay (membrane) % inhibition (10 μM)” value came to 100.8%.
Regarding `CCn1c(Sc2ccccc2)nnc1[C@@H](Cc1ccccc1)NS(=O)(=O)c1ccc(Cl)c(Cl)c1` [Compound 2], the melting point was in the range of 134 to 138 °C. Moreover, in data set [1] (setting [2]), the inhibition at 10 µM was found to be 103% and the “Binding assay (membrane) % inhibition (10 μM)” value is on record as 97.8%.
Consider `CCn1c(Oc2ccc(C)cc2)nnc1[C@@H](C)NS(=O)(=O)c1ccc(Cl)c(Cl)c1` [Compound 3], for which the melting point is 183.5 to 187.5 °C. Further, the IC50 in data set [1] came out at 4.2 nM. For the same molecule, in data set [1] (setting [2]), the inhibition at 10 µM worked out at 98.7%.
For the molecule `CCn1c(Oc2ccccc2C)nnc1[C@@H](C)NS(=O)(=O)c1ccc(Cl)c(Cl)c1` [Compound 4], the melting point was in the range of 198.5 to 200.5 °C. The inhibition at 10 µM in data set [1] (setting [2]) is 95.7%.
`CCn1c(Oc2cccc(C)c2)nnc1[C@@H](C)NS(=O)(=O)c1ccc(Cl)c(Cl)c1` [Compound 5] displayed a melting point of 160 to 161 °C. The IC50 in data set [1] is not above 35 nM. Also, in data set [1] (setting [2]), the inhibition at 10 µM is 97.3%.
In turn, `CCn1c(Oc2ccccc2Cl)nnc1[C@@H](C)NS(=O)(=O)c1ccc(Cl)c(Cl)c1` [Compound 6] displayed a melting point of 180 to 190 °C. For the same molecule, the inhibition at 10 µM in data set [1] (setting [2]) came to 98.2%.
`CCn1c(Oc2ccccc2)nnc1[C@@H](C)NS(=O)(=O)c1ccc(Cl)c(Cl)c1` [Compound 7] gave a melting point of 159.5 to 161.5 °C. Further, the IC50 in data set [1] is 35.5 nM. In addition, the inhibition at 10 µM in data set [1] (setting [2]) amounted to 99.4%.
Taken in the same sequence, the figures for `CCn1c(Oc2ccc(Cl)cc2)nnc1[C@@H](C)NS(=O)(=O)c1ccc(Cl)c(Cl)c1` [Compound 8] were 179 to 189.5 °C, 18.5 nM and 100%.
Take `CCn1c(Oc2cccc(Cl)c2)nnc1[C@@H](C)NS(=O)(=O)c1ccc(Cl)c(Cl)c1` [Compound 9]: the melting point fell in the range of 145 to 148 °C. Further, the inhibition at 10 µM in data set [1] (setting [2]) turned out to be 100%.
Take `CCn1c(Oc2ccc(C)cc2)nnc1[C@@H](Cc1ccccc1)NS(=O)(=O)c1ccc(Cl)c(Cl)c1` [Compound 10]: the melting point fell in the range of 182.5 to 184.5 °C. For the same molecule, the IC50 in data set [1] was determined as 17.5 nM. The inhibition at 10 µM in data set [1] (setting [2]) worked out at 99.8%.
`CCn1c(Oc2ccc(OC)cc2)nnc1[C@@H](C)NS(=O)(=O)c1ccc(Cl)c(Cl)c1` [Compound 11]: the melting point is 155 to 160 °C. Moreover, the IC50 in data set [1] is 8.9 nM. Besides, the inhibition at 10 µM in data set [1] (setting [2]) is 98.5%.
Taken in the same sequence, the figures for `CCn1c(Oc2ccc(F)cc2)nnc1[C@@H](C)NS(=O)(=O)c1ccc(Cl)c(Cl)c1` [Compound 12, 3,4-Dichloro-N-{(R)-1-[4-ethyl-5-(4-fluorophenoxy)-4H-[1,2,4]-triazol-3-yl]ethyl}benzenesulfonamide] were 190 to 192 °C, 20 nM and 99.2%.
For the molecule `CCn1c(Oc2ccc(Cl)c(Cl)c2)nnc1[C@@H](C)NS(=O)(=O)c1ccc(Cl)c(Cl)c1` [Compound 13], the melting point is 152 to 156 °C. Also, in data set [1], the IC50 is not above 35 nM. Moreover, the inhibition at 10 µM in data set [1] (setting [2]) was determined as 102%.
For `CCn1c(Oc2ccc(C)c(C)c2)nnc1[C@@H](C)NS(=O)(=O)c1ccc(Cl)c(Cl)c1` [Compound 14], in that order: 161 to 162.5 °C, 6.4 nM and 99.5%.
For `CCn1c(Oc2ccc(C3CCCCC3)cc2)nnc1[C@@H](C)NS(=O)(=O)c1ccc(Cl)c(Cl)c1` [Compound 15], the melting point was in the range of 200 to 205 °C. Besides, the IC50 in data set [1] was determined as 32.5 nM. For the same molecule, the inhibition at 10 µM in data set [1] (setting [2]) is 103%.
Taken in the same sequence, the figures for `CCn1c(Oc2ccc(OC)c(OC)c2)nnc1[C@@H](C)NS(=O)(=O)c1ccc(Cl)c(Cl)c1` [Compound 16] were 125 to 127 °C, not above 35 nM and 101%.
The molecule `CCn1c(Oc2cc(OC)c(OC)c(OC)c2)nnc1[C@@H](C)NS(=O)(=O)c1ccc(Cl)c(Cl)c1` [Compound 17] displayed a melting point of 129.5 to 131.5 °C. In data set [1] (setting [2]), the inhibition at 10 µM came out at 95.4%.
`CCn1c(Oc2cc(C)c(C)c(C)c2)nnc1[C@@H](C)NS(=O)(=O)c1ccc(Cl)c(Cl)c1` [Compound 18]: the melting point fell in the range of 189 to 194 °C. In data set [1], the IC50 is not above 35 nM. Further, in data set [1] (setting [2]), the inhibition at 10 µM came to 102%.
`CCn1c(Oc2cc(C)cc(C)c2)nnc1[C@@H](C)NS(=O)(=O)c1ccc(Cl)c(Cl)c1` [Compound 19] came in with a melting point of 145 to 150 °C. Moreover, in data set [1] (setting [2]), the inhibition at 10 µM amounted to 97.9%.
`CCn1c(Oc2cc(OC)cc(OC)c2)nnc1[C@@H](C)NS(=O)(=O)c1ccc(Cl)c(Cl)c1` [Compound 20] registered a melting point of 118 to 120 °C. Moreover, in data set [1] (setting [2]), the inhibition at 10 µM was 97.4%.
`CCCCOc1ccc(Oc2nnc([C@@H](C)NS(=O)(=O)c3ccc(Cl)c(Cl)c3)n2CC)cc1` [Compound 21] came in with a melting point of 146.5 to 149.5 °C. Also, in data set [1], the IC50 was not above 35 nM. In data set [1] (setting [2]), the inhibition at 10 µM worked out at 96.7%.
Taken in the same sequence, the figures for `CCn1c(Oc2ccc(Oc3ccccc3)cc2)nnc1[C@@H](C)NS(=O)(=O)c1ccc(Cl)c(Cl)c1` [Compound 22] were 163 to 167.5 °C, 14 nM and 95.4%.
`CCn1c(Oc2ccc(OCc3ccccc3)cc2)nnc1[C@@H](C)NS(=O)(=O)c1ccc(Cl)c(Cl)c1` [Compound 23] gave a melting point of 173 to 176 °C. Moreover, the IC50 in data set [1] is not above 35 nM. The inhibition at 10 µM in data set [1] (setting [2]) came out at 96.7%.
For `CCc1ccc(Oc2nnc([C@@H](C)NS(=O)(=O)c3ccc(Cl)c(Cl)c3)n2CC)cc1` [Compound 24], in that order: 172.5 to 173 °C, not above 10 nM and 101%.
For `CCCc1ccc(Oc2nnc([C@@H](C)NS(=O)(=O)c3ccc(Cl)c(Cl)c3)n2CC)cc1` [Compound 25], in that order: 155 to 156 °C, not above 35 nM and 97.5%.
For `CCn1c(Oc2ccc(Cl)c(C)c2)nnc1[C@@H](C)NS(=O)(=O)c1ccc(Cl)c(Cl)c1` [Compound 26], in that order: 159 to 164 °C, not above 35 nM and 97.9%.
`CCn1c(Oc2ccc(-n3cccc3)cc2)nnc1[C@@H](C)NS(=O)(=O)c1ccc(Cl)c(Cl)c1` [Compound 27] displayed a melting point of 163 to 168 °C. The inhibition at 10 µM in data set [1] (setting [2]) came out at 100%.
`CCn1c(Oc2cccc(N(C)C)c2)nnc1[C@@H](C)NS(=O)(=O)c1ccc(Cl)c(Cl)c1` [Compound 28] yielded a melting point of 165 to 170 °C. For the same molecule, in data set [1], the IC50 came out at 3.1 nM. In data set [1] (setting [2]), the inhibition at 10 µM was 104%.
Regarding `CCn1c(Oc2ccc(-c3ccccc3)cc2)nnc1[C@@H](C)NS(=O)(=O)c1ccc(Cl)c(Cl)c1` [Compound 29], the melting point was 177 to 178.5 °C. Also, the inhibition at 10 µM in data set [1] (setting [2]) came to 101%.
For `CCn1c(Oc2cc(Cl)cc(Cl)c2)nnc1[C@@H](C)NS(=O)(=O)c1ccc(Cl)c(Cl)c1` [Compound 30], in that order: 212 to 216 °C and 100%.
Taken in the same sequence, the figures for `CCn1c(Oc2ccc(F)c(Cl)c2)nnc1[C@@H](C)NS(=O)(=O)c1ccc(Cl)c(Cl)c1` [Compound 31] were 143 to 146 °C and 101%.
`CCCCc1ccc(Oc2nnc([C@@H](C)NS(=O)(=O)c3ccc(Cl)c(Cl)c3)n2CC)cc1` [Compound 32]: the melting point is 147 to 148 °C. In data set [1], the IC50 was not above 35 nM. Besides, the inhibition at 10 µM in data set [1] (setting [2]) was found to be 104%.
For the molecule `CCn1c(Oc2ccc(OC(F)(F)F)cc2)nnc1[C@@H](C)NS(=O)(=O)c1ccc(Cl)c(Cl)c1` [Compound 33], the melting point lay in the range of 173.5 to 174.5 °C. Moreover, the inhibition at 10 µM in data set [1] (setting [2]) worked out at 101%.
For the molecule `CCn1c([C@@H](C)NS(=O)(=O)c2ccc(Cl)c(Cl)c2)nnc1S(=O)(=O)c1ccc(C)cc1` [Compound 57, 3,4-Dichloro-N-[(R)-1-[4-ethyl-5(4-methylbenzenesulfonyl)-4H-[1,2,4]triazol-3-yl]-ethyl]-benzenesulfonamide], the melting point lay within 164 to 165 °C.
Turning to `CCn1c(Oc2cccc(N3CCN(C)CC3)c2)nnc1[C@@H](C)NS(=O)(=O)c1ccc2oc(=O)ccc2c1` [Compound 679], the inhibition at 10 µM in data set [1] (setting [3]) stood at 104%.
For the molecule `CCn1c(Oc2ccc(F)cc2)nnc1[C@@H](C)N(CC(=O)O)S(=O)(=O)c1ccc(Cl)c(Cl)c1` [Compound 684], the melting point lay within 169.5 to 171.5 °C.
Take `CCn1c(Oc2ccc(F)cc2)nnc1C(NS(=O)(=O)c1ccc(Cl)c(Cl)c1)C(F)(F)F` (stereo not shown) [Compound 687, 3,4-Dichloro-N-[1-[4-ethyl-5-(4-fluorophenoxy)-4H-[1,2,4]triazol-3-yl]-2,2,2-trifluoroethyl]-benzenesulfonamide]: the inhibition at 10 µM in data set [1] (setting [3]) was determined as 80.1%.
On the same count and under the same terms, in the case of `CCn1c(Oc2ccc(F)cc2)nnc1[C@@H](CF)NS(=O)(=O)c1ccc(Cl)c(Cl)c1` [Compound 689] it was 92.7%.
Turning to `CCn1c(Oc2cccc(N3CCN(C(C)=O)CC3)c2)nnc1[C@@H](C)NS(=O)(=O)c1ccc2c(Cl)cccc2c1` [Compound 698], the IC50 in data set [1] amounted to 2.3 nM.
